Common to all, as to assay: growth of human tumour cells (NCI), 48 h
For test [1], the system named is SNB-19 CNS.
Test [2] has as its system UACC-257 melanoma.
In test [3] the test system is MDA-MB-231 breast.
Test [4] deals with COLO 205 colon.
In test [5] the test system is MOLT-4 leukemia.
Test [6] concerns OVCAR-5 ovarian.
In test [7] the test system is MALME-3M melanoma.
Test [8] concerns IGROV1 ovarian.
The test system of test [9] is SN12C renal.
Test [10] concerns A549 NSCLC.

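96-well plates; 48 h exposure; 5 concentrations. Endpoints by linear interpolation between flanking doses. Not reached: highest tested concentration assigned. TGI: concentration producing complete growth inhibition.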 Where only a bound is given, the exact number is not on record here.

As to `O=C1CC2(CCN(Cc3ccccc3)CC2)C(=O)N1N1CCCCC1`, the TGI in [1], in [2], in [3], in test [4], in test [5] and in test [6] was above 100 µM each time. Also, the TGI in test [7], in test [8], in test [9] and in test [10] was above 100 µM each time.

For the molecule `Cc1ccc(NC(c2ccccc2)P(=O)(c2ccccc2)c2ccccc2)cc1` (stereo not given), the TGI in [1], in [2], in test [3], in test [4], in test [5] and in [6] was above 100 µM throughout. Besides, the TGI in [7], in [8], in test [9] and in test [10] was above 100 µM in each case.

`O=C(O)COc1c(Cl)cc(Cl)c(C(c2c(Cl)cc(Cl)c(OCC(=O)O)c2Cl)C(Cl)(Cl)Cl)c1Cl`: the TGI is above 100 µM in [1]; 59.8 µM in [2]; 61.3 µM in [3]; above 100 µM in test [4]; above 100 µM in test [5]; 67.6 µM in test [6]. Moreover, the TGI is 76.7 µM in [7], above 100 µM in test [8], above 100 µM in test [9] and 83.8 µM in [10].

Consider `O=C1c2cccc3cc([N+](=O)[O-])cc(c23)C(=O)N1c1ccc(OCCN2CCCC2)cc1`, for which the TGI in test [1] was 80.2 µM; in test [2] it was 36.1 µM; in test [3] it was above 100 µM; in test [4], 38.3 µM; in [5] it was 56.7 µM; in test [6] it was 51.7 µM. Further, the TGI in [7] was 30.9 µM; in [8] it was 41.9 µM; in test [9] it was above 100 µM; in [10], 20.6 µM.

On to `C1CCC(CC2CCC(NC3=NCCO3)CC2)CC1` (stereo not given), for which the TGI in test [1] was 34.3 µM; in [2], 30.1 µM; in test [3] it was 37.5 µM; in [4] it was 28.2 µM; in [5], 48.1 µM; in test [6] it was 53.6 µM. Further, the TGI in test [7] is 29.7 µM; in test [8], 37.1 µM; in test [9] it was 42.5 µM; in test [10], above 100 µM.

For `COC(=O)[C@@H]1CN(C(=O)Cc2ccccc2)C(=O)N1`, the TGI in test [1], in [2], in test [3], in [4], in [5] and in [6] was above 100 µM throughout. Moreover, the TGI in [7], in [8], in test [9] and in [10] was above 100 µM each time.

As to `Clc1ccc(Cc2nc3cc4ccccc4cc3[nH]2)cc1Cl`, the TGI in test [1] is 46 µM; in test [2], 37.7 µM; in test [3] it was 38 µM; in test [4], above 100 µM; in [5], 4.03 µM; in test [6], above 100 µM. Besides, the TGI in test [7] was found to be 39.4 µM; in [8] it was 16.7 µM; in test [9], 52.2 µM; in test [10], 68.9 µM.

Consider `Cc1n[nH]c(=O)c2c3c([nH]c12)-c1ccccc1C3`, for which the TGI in test [1], in [2], in test [3], in test [4], in test [5] and in test [6] was above 100 µM throughout. Moreover, the TGI in [7], in test [8], in [9] and in test [10] was above 100 µM each time.

For the molecule `COc1cc2c(cc1C)NC(=O)/C2=C/c1c(Cl)[nH]c2ccccc12`, the TGI in test [1] is 19.2 µM; in [2], 22.8 µM; in test [3], 16.9 µM; in test [4] it was 13.1 µM; in [5], 31.3 µM; in test [6], 24.4 µM. For the same molecule, the TGI in test [7] is 15.3 µM; in [8], 16.8 µM; in [9], 16.7 µM; in test [10], above 100 µM.

As to `CCc1nnc2sc(-c3ccc(-c4ccccc4[N+](=O)[O-])o3)nn12`, the TGI in [1] is above 100 µM; in test [2], above 100 µM; in [3], above 100 µM; in test [4], above 100 µM; in test [5], 62.8 µM; in test [6] it was above 100 µM. In addition, the TGI in [7], in test [8], in test [9] and in test [10] was above 100 µM each time.

Take `Cc1[nH]c2c(C)c3c([nH]c4ccc(Cl)cc43)c(C)c2c(=O)c1C`: the TGI was above 100 µM in [1]; above 100 µM in test [2]; 7.54 µM in test [3]; 18.8 µM in test [4]; 8.44 µM in [5]; 12.4 µM in [6]. Further, the TGI in test [7] is 72.8 µM; in [8], above 65.5 µM; in [9] it was 15.1 µM; in [10] it was 10 µM.

Regarding `CCOc1c2c(cc3c1C(=O)c1c(OC)cccc1C3=O)C=C(OC)CC2`, the TGI in [1], in [2], in [3], in [4], in [5] and in test [6] was above 25 µM each time. Further, the TGI in test [7], in [8], in test [9] and in test [10] was above 25 µM in each case.

As for `COc1ccc(Cl)cc1NC(=O)O/N=C(\Cl)C(C)C`, the TGI is above 61.7 µM in test [1]; 35.9 µM in test [2]; 15.1 µM in [3]; 3.5 µM in test [4]; 6.11 µM in test [5]; 34.2 µM in test [6]. In addition, the TGI was determined as 5.28 µM in [7], 27.1 µM in [8], 23.4 µM in [9] and 37.9 µM in test [10].
